These molecules were tested on APP/PS1 double transgenic mouse (assay: Y-maze test using APP/PS1 double transgenic mouse). Conditions: 10 mg/kg orally once a day, 16 hours after the 13th administration.
Type: in vivo
Method: Animals used were 3-month-old female APP/PS1 double transgenic mice (10-15 mice/group). A test compound was suspended in a 0.5% aqueous methylcellulose [133-14255 WAKO] solution (1 mg/mL). The body weight of the mice was measured, and the solution was forcibly administered orally and repeatedly once a day for 14 days. At 16 hours after the 13th administration, spontaneous alternation behavior in Y-maze test was evaluated. Using a particular arm of a Y-shaped test apparatus as the starting point, the frequency of moving to a different arm was counted for 5 min. The first two times of entry were excluded from the total number of entry. In addition, the mice that entered less than 10 times in total were excluded. Movement to an arm different from the arm into which the mouse entered last but one was considered an alternation behavior, and the ratio to the total number of moving was calculated as a spontaneous alternation behavior rate. As comparison subjects, a control group (test compound-non treatment group) and a control group in wild-type mice were used.

SMILES	Spontaneous alternation behavior rate (%)
O=C(c1cccnc1-c1ccncc1)N1CCC(O)(Cc2ccccc2)CC1 [Example 44, (4-benzyl-4-hydroxypiperidin-1-yl) (2,4′-bipyridin-3-yl)methanone]	71%

Same assay, conditions: 30 mg/kg orally once a day, 16 hours after the 13th administration

SMILES	Spontaneous alternation behavior rate (%)
O=C(c1cccnc1-c1ccncc1)N1CCC(O)(Cc2ccccc2)CC1 [Example 44, (4-benzyl-4-hydroxypiperidin-1-yl) (2,4′-bipyridin-3-yl)methanone]	71%

What follows are molecules tested on 24-HC in the brain (assay: Quantification test of 24-HC in mouse brain after repeated oral administration). Conditions: brain 24-HC; female C57BL/6N mice; 10 mg/kg orally once a day for 3 days; 16 hours after the third administration; relative to control group as 100%.
Type: in vivo
Method: Animals used were 6-week-old female C57BL/6N mice (3 mice/group). A test compound was suspended in a 0.5% aqueous methylcellulose [133-14255 WAKO] solution (1 mg/mL). The body weight of the mice was measured, and the solution was forcibly administered orally and repeatedly once a day for 3 days. At 16 hours after the third administration, half of the brain was recovered, and the amount of 24-HC was measured.
The wet weight of the brain was measured, and the brain was homogenized with about 4-fold amount (0.5 mL) of saline. This solution was used as a brain extract. 24-HC in the brain extract was extracted with an acetonitrile solution (98% acetonitrile, 1.98% methanol, 0.02% formic acid), and quantified by HPLC. The average value of 24-HC amount was calculated and the results are shown in relative values with the control group as 100%.

SMILES	decrease rate (%) at 10 mg/kg
O=C(c1cccnc1-c1ccncn1)N1CCC(O)(Cc2ccccc2)CC1 [Example 54, (4-benzyl-4-hydroxypiperidin-1-yl) (2-(pyrimidin-4-yl)pyridin-3-yl)methanone]	64%
O=C(c1cccnc1-c1ccncc1)N1CCC(O)(Cc2ccc(F)cc2)CC1 [Example 67, 2,4′-bipyridin-3-yl (4-(4-fluorobenzyl)-4-hydroxypiperidin-1-yl)methanone]	43%
O=C(c1cccnc1-c1ccncn1)N1CCC(O)(Cc2ccc(F)cc2F)CC1 [Example 105, (4-(2,4-difluorobenzyl)-4-hydroxypiperidin-1-yl) (2-(pyrimidin-4-yl)pyridin-3-yl)methanone]	40%
N#Cc1ccc(CC2(O)CCN(C(=O)c3cccnc3-c3ccncc3)CC2)cc1 [Example 70, 4-((1-(2,4′-bipyridin-3-ylcarbonyl)-4-hydroxypiperidin-4-yl)methyl)benzonitrile]	60%
O=C(c1ccccc1-c1ccncn1)N1CCC(O)(Cc2ccccc2)CC1 [Example 14, (4-benzyl-4-hydroxypiperidin-1-yl) (2-(pyrimidin-4-yl)phenyl)methanone]	67%
O=C(c1cccnc1-c1ccncn1)N1CCC(O)(Cc2ccc(F)cc2)CC1 [Example 92, (4-(4-fluorobenzyl)-4-hydroxypiperidin-1-yl) (2-(pyrimidin-4-yl)pyridin-3-yl)methanone]	60%
O=C(c1ccc(F)cc1-c1ccncc1)N1CCC(O)(Cc2ccccn2)CC1 [Example 30, (4-fluoro-2-(pyridin-4-yl)phenyl) (4-hydroxy-4-(pyridin-2-ylmethyl)piperidin-1-yl)methanone]	87%
O=C(c1cccnc1-c1ccncc1)N1CCC(O)(Cc2ccc(F)cc2F)CC1 [Example 87, 2,4′-bipyridin-3-yl (4-(2,4-difluorobenzyl)-4-hydroxypiperidin-1-yl)methanone]	37%
Cc1nc(-c2ccncn2)c(C(=O)N2CCC(O)(Cc3ccc(F)cc3)CC2)s1 [Example 62, (4-(4-fluorobenzyl)-4-hydroxypiperidin-1-yl) (2-methyl-4-(pyrimidin-4-yl)-1,3-thiazol-5-yl)methanone]	71%
